Source: PubChem BioAssay (NCI)
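Grown in 96-well plates, cells were treated for 48 hours with each compound at five concentrations. Insufficient inhibition: endpoint recorded as highest concentration tested. Abbreviation: GI50, concentration required for 50% inhibition of growth. TGI marks complete inhibition of growth.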

Key:
Test in all cases: growth of human tumour cells (NCI), 48 h
MOLT-4 leukemia = tested on: MOLT-4 leukemia
HL-60(TB) leukemia = tested on: HL-60(TB) leukemia
HOP-62 NSCLC = tested on: HOP-62 NSCLC
SR leukemia = tested on: SR leukemia
OVCAR-4 ovarian = tested on: OVCAR-4 ovarian
SK-OV-3 ovarian = tested on: SK-OV-3 ovarian
K-562 leukemia = tested on: K-562 leukemia
OVCAR-5 ovarian = tested on: OVCAR-5 ovarian
MCF7 breast = tested on: MCF7 breast
TK-10 renal = tested on: TK-10 renal

SMILES	GI50 (MOLT-4 leukemia)	TGI (MOLT-4 leukemia)	GI50 (HL-60(TB) leukemia)	TGI (HL-60(TB) leukemia)	GI50 (HOP-62 NSCLC)	TGI (HOP-62 NSCLC)	GI50 (SR leukemia)	TGI (SR leukemia)	GI50 (OVCAR-4 ovarian)	TGI (OVCAR-4 ovarian)	GI50 (SK-OV-3 ovarian)	TGI (SK-OV-3 ovarian)	GI50 (K-562 leukemia)	TGI (K-562 leukemia)	GI50 (OVCAR-5 ovarian)	TGI (OVCAR-5 ovarian)	GI50 (MCF7 breast)	TGI (MCF7 breast)	GI50 (TK-10 renal)	TGI (TK-10 renal)
CC1=C[C@H]2c3c(c(O)c(O)c4oc(-c5ccccc5)cc(=O)c34)[C@H](c3cc(O)c(O)c4oc(-c5ccccc5)cc(=O)c34)[C@H]2C(C)(C)C1	0.988 µM	> 75 µM	2.33 µM	7.33 µM	0.76 µM	12.9 µM	0.457 µM	> 75 µM	1.56 µM	9.55 µM	1.76 µM	10.9 µM	0.294 µM	> 75 µM	3.22 µM	13 µM	0.597 µM	9.16 µM	1.57 µM	31 µM
COc1ccc(C(=O)COc2ccc(/C=C3\COc4ccc(OC)cc4C3=O)cc2)cc1	9.36 µM	51.6 µM	11 µM	62.8 µM	24.8 µM	47.7 µM	2.09 µM	5.91 µM	17.4 µM	69.2 µM	30.6 µM	81 µM	4.09 µM	61.2 µM	30.2 µM	86.9 µM	3.1 µM	18.6 µM	19.1 µM	48.7 µM
O=C(CCC1OCCO1)Nc1cc(NCc2ccccc2)ccc1OCc1ccccc1		81.5 µM		97.3 µM		> 100 µM		92 µM		> 100 µM		> 100 µM		> 100 µM		> 100 µM		> 100 µM		83.4 µM
O=C(O)C1C(Br)(c2ccccc2)C1(Br)c1ccccc1 (stereo not drawn)		> 100 µM		> 100 µM		> 100 µM		> 100 µM		64.1 µM		81 µM		> 100 µM		> 100 µM		> 100 µM		> 100 µM
COc1cc(C(=O)c2cc(C)c3[nH]c4ccc(C)cc4c3c2C)cc(OC)c1OC	< 0.01 µM	> 100 µM	< 0.01 µM	< 0.01 µM	< 0.01 µM	> 100 µM	< 0.01 µM	> 100 µM	0.0714 µM	> 100 µM	< 0.0307 µM	> 100 µM	< 0.01 µM	> 100 µM	< 0.01 µM	> 100 µM	< 0.01 µM	> 100 µM	3.37 µM	> 100 µM
CC(C)(C[C@H]1CN(S(=O)(=O)c2cccc(C(F)(F)F)c2)c2cc(-c3cc(F)cc(OC(F)F)c3)ccc2O1)C(=O)O	5.88 µM	29.7 µM	4.82 µM	24.8 µM	6.65 µM	23.8 µM	3.29 µM	23.8 µM	13.2 µM	41.7 µM	13.2 µM	27.4 µM	4.83 µM	30.3 µM	12.6 µM	25.9 µM	3.98 µM	22.4 µM	9.07 µM	27.6 µM
CCNC(=O)Nc1cccc(NC(=O)NCC)n1		> 100 µM		> 100 µM		> 100 µM		> 100 µM		> 100 µM		> 100 µM		> 100 µM		> 100 µM		> 100 µM		> 100 µM
COc1cc(/C=C/c2cc(/C=C/c3ccc(O)c(OC)c3)n(C(=O)Nc3ccc(C)cc3C)n2)ccc1O	0.281 µM	1.22 µM	0.262 µM	0.801 µM	0.442 µM	1.54 µM	0.0445 µM		0.464 µM	2.99 µM	0.347 µM	1.21 µM	0.292 µM	1.17 µM	1.51 µM	6.85 µM	0.317 µM	1.37 µM	0.529 µM	2.16 µM
Nc1nc(F)nc2c1ncn2C1OC(CO)C(O)C1O (stereo not drawn)		> 100 µM	3.3 µM	> 100 µM	13.6 µM	> 79.6 µM	> 68.9 µM	> 100 µM		> 100 µM		> 100 µM		> 100 µM		> 100 µM	26.3 µM	> 100 µM		> 100 µM
COc1ccc(CC2NCCc3cc(OC)c(OC)cc32)cc1Br (stereo not drawn)		73.3 µM		28.1 µM		> 100 µM		74.6 µM		> 100 µM		> 100 µM		45.6 µM		> 77.7 µM		> 100 µM		> 89.8 µM
Br[C](Br)(Br)[Hg][c]1ccccc1	3.66 µM	35.2 µM	2.28 µM	6.62 µM	13.4 µM	18.7 µM	3.32 µM	20.4 µM	19.9 µM	41.9 µM	19 µM	33.1 µM	0.275 µM	5.02 µM	15.4 µM	28.8 µM	4.85 µM	19.4 µM	17.5 µM	31.4 µM
O=C1Nc2ccc(F)cc2/C1=C/c1ccc[nH]1	> 25 µM	> 25 µM	> 25 µM	> 25 µM	> 25 µM	> 25 µM	7.84 µM	> 25 µM	4.06 µM	> 25 µM	> 25 µM	> 25 µM	> 25 µM	> 25 µM	> 21.3 µM	> 25 µM	1.06 µM	> 25 µM	14.4 µM	> 25 µM
